Measurements as given in patent publication US20190255144A1, “SPECIFIC OLIGOPEPTIDES AS ANTI-ANGIOGENIC DRUGS” (NEURONAX, priority 2014, published 2019).

System: chorioallantoic membrane (CAM) vascularization
Experiment: Treatments on the chorioallantoic membrane (CAM), fluorescein angiography
Type: in vivo, chicken embryo
Conditions: impregnated sponge on CAM at ED9; oligopeptide 250 μg/mL (9 hours), VEGF 10 ng/mL
Description: In fact, TSP-1 is known for inducing the apoptosis of endothelial cells. […] It is also a decisive process under certain physiological and pathological conditions (cancers in particular). This mechanism is controlled by numerous factors having either an inhibitor potential or an activator. So as to evaluate the main properties of these in vivo factors, the most common model is the CAM (chorioallantoic membrane) model from the chicken embryo (Ribatti et al., 2000). It offers the advantage of making it possible to test the pro- or anti-angiogenic factors during an active angiogenesis phase between the embryonic stages 4j and 10j. The major effects of the various molecules can therefore be evaluated in vivo. The model of the CAM can also be used in experimental tumor development. The grafting of human cancer cells onto the surface of the CAM is carried out in the 9-day embryonic stage. Three days after the grafting at ED12, the formation of a tumor is visible at the surface of the CAM. The latter can be treated topically during the 48 hours that follow this stage, and the tumors are sampled at ED14j. The fertilized eggs (Haas Poultry Farm, Strasbourg, France) are kept for 24 hours at 18° C. before the incubation is started up. […] The embryonic stages are determined from tables of Hamburger and Hamilton (H and H, 1951). […]

VEGF
Vascularization / microvascularization of the CAM (in words): the microvascularization is dense and comprises numerous vascular branches
